Measured values published in the kinase profiling compilation of Christmann-Franck et al. (2016).

Key:
Experiment in all cases: KINOMEscan competition binding
Conditions in all cases: compound 1.0 µM
FGFR1 (human) = FGFR1 (human) (UniProt P11362)
MAP4K2 (human) = MAP4K2 (human) (UniProt Q12851)
NIM1 (human) = NIM1 (human) (UniProt Q8IY84)
CDK5 (human) = CDK5 (human) (UniProt Q00535)
PIP4K2C (human) = PIP4K2C (human) (UniProt Q8TBX8)
MYLK2 (human) = MYLK2 (human) (UniProt Q9H1R3)
LATS2 (human) = LATS2 (human) (UniProt Q9NRM7)
CDKL3 (human) = CDKL3 (human) (UniProt Q8IVW4)
ERBB2 (human) = ERBB2 (human) (UniProt P04626)
[1] = tested on: FLT3 (human), P36888 [D835H]
RPS6KA5 KD2 (human) = RPS6KA5 KD2 (human) (UniProt O75582)
MAPK1 (human) = MAPK1 (human) (UniProt P28482)
TAOK2 (human) = TAOK2 (human) (UniProt Q9UL54)
HIPK2 (human) = HIPK2 (human) (UniProt Q9H2X6)
ULK1 (human) = ULK1 (human) (UniProt O75385)
[2] = tested on: PIK3CA (human), P42336 [I800L]
Sequence of PIK3CA (human), P42336 [I800L] (P42336 whole entry I800L, looked up): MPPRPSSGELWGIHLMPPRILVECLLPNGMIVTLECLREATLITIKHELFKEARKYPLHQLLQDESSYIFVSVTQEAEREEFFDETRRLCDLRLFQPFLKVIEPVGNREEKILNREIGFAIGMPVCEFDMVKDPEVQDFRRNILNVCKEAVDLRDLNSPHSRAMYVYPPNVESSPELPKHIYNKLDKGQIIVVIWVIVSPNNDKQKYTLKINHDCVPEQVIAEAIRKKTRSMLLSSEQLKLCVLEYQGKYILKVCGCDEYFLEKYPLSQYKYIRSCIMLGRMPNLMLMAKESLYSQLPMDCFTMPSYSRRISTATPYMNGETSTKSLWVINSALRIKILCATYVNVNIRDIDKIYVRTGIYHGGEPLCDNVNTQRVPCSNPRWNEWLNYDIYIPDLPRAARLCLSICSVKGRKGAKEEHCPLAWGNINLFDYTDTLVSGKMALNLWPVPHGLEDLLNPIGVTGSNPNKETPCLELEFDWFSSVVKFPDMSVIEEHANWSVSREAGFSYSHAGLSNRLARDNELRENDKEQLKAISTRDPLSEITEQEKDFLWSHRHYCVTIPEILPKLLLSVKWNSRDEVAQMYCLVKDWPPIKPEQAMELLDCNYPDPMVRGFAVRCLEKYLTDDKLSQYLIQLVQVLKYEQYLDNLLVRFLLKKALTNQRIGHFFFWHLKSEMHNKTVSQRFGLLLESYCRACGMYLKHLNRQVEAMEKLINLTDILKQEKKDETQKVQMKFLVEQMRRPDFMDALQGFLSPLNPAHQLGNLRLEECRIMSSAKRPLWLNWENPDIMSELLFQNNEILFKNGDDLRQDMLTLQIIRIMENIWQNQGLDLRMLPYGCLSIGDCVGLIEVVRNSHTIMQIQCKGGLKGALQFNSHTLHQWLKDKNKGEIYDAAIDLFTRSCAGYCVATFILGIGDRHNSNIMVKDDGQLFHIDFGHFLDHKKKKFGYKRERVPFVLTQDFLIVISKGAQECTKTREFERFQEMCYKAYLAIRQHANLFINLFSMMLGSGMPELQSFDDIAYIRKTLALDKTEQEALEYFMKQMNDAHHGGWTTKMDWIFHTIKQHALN

EPHA8 (human) = EPHA8 (human) (UniProt P29322)
Sequence of EPHA8 (human) (P29322 whole entry, looked up): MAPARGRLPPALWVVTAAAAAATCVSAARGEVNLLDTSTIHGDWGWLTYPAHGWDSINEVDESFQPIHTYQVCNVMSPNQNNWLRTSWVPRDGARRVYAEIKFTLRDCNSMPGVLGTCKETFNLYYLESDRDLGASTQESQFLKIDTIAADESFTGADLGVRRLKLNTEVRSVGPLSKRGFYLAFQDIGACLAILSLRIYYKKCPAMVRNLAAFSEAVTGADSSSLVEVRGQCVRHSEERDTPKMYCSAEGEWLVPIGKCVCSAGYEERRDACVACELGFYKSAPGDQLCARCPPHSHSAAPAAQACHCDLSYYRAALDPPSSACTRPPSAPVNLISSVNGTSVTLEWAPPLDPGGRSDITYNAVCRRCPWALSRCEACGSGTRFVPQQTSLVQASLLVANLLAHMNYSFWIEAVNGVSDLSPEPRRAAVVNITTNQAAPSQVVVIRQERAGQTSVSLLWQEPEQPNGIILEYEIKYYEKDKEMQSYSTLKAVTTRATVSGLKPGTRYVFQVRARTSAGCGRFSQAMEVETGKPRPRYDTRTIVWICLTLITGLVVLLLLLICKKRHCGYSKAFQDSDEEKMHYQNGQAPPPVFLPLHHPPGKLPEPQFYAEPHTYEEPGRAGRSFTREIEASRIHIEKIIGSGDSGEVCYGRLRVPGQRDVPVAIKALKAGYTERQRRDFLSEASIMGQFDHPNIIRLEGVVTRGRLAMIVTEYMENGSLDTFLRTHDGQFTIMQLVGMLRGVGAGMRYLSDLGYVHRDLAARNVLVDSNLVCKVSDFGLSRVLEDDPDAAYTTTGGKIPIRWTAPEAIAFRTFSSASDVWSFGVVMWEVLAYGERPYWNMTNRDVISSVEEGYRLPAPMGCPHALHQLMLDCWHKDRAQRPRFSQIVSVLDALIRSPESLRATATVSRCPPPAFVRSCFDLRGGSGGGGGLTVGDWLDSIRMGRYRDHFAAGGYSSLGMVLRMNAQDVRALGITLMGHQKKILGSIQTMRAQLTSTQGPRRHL

CDK18 (human) = CDK18 (human) (UniProt Q07002)
PTK2 (human) = PTK2 (human) (UniProt Q05397)
CDC2L2 (human) = CDC2L2 (human) (UniProt Q9UQ88)
Sequence of CDC2L2 (human) (Q9UQ88 whole entry, looked up): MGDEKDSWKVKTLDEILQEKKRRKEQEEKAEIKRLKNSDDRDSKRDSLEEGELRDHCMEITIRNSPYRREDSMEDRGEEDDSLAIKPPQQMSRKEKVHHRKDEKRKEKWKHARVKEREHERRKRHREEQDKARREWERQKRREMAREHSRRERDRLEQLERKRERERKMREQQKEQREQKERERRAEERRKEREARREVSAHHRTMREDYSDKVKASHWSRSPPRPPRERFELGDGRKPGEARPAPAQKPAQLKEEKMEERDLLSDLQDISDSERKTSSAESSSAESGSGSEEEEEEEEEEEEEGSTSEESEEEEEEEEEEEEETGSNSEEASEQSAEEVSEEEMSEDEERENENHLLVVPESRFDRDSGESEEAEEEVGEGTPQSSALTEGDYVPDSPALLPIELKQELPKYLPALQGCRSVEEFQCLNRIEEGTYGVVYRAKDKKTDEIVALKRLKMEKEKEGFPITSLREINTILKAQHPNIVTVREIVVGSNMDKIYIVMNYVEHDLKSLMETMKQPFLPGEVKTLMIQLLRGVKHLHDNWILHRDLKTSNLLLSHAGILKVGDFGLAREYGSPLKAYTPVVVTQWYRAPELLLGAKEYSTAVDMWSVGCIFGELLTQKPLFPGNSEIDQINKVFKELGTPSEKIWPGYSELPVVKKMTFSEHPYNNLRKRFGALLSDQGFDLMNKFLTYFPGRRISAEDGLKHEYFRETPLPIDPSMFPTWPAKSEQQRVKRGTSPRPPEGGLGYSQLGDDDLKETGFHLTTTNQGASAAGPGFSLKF

IRAK4 (human) = IRAK4 (human) (UniProt Q9NWZ3)
TXK (human) = TXK (human) (UniProt P42681)
FLT4 (human) = FLT4 (human) (UniProt P35916)
ALK (human) = ALK (human) (UniProt Q9UM73)
AKT3 (human) = AKT3 (human) (UniProt Q9Y243)
Sequence of AKT3 (human) (Q9Y243 whole entry, looked up): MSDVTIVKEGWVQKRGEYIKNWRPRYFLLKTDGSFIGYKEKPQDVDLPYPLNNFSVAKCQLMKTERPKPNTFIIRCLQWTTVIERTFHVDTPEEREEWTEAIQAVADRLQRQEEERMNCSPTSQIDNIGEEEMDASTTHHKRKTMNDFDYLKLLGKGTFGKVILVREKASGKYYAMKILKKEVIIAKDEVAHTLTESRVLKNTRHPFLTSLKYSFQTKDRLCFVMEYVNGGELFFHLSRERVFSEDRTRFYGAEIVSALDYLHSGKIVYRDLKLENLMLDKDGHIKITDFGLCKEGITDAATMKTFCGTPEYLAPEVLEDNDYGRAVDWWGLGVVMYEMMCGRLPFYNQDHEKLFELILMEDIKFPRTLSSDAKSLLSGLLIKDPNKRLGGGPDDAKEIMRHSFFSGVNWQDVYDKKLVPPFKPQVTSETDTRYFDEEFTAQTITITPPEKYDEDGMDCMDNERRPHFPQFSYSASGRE

CPK1 (P.falciparum) = tested on: CPK1 (P.falciparum)
KDR (human) = KDR (human) (UniProt P35968)
TSSK1B (human) = TSSK1B (human) (UniProt Q9BXA7)
Sequence of TSSK1B (human) (Q9BXA7 whole entry, looked up): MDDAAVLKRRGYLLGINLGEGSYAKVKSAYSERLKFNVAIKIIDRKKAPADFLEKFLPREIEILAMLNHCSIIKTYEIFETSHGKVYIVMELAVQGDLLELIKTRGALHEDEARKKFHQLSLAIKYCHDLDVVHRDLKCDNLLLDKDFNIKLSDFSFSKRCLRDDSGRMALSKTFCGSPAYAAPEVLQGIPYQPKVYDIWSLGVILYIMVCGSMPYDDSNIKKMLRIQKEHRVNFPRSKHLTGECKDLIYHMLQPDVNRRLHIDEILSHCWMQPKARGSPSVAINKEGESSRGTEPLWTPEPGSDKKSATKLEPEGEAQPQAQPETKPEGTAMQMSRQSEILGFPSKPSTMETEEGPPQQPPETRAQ

RPS6KA4 KD1 (human) = RPS6KA4 KD1 (human) (UniProt O75676)
[3] = tested on: EGFR (human), P00533 [752-759 del]
[4] = biological target: JAK2 JH1 catalytic (human) (UniProt O60674)
MAPK11 (human) = MAPK11 (human) (UniProt Q15759)
PRPF4B (human) = PRPF4B (human) (UniProt Q13523)
MAP3K6 (human) = MAP3K6 (human) (UniProt O95382)
LIMK2 (human) = LIMK2 (human) (UniProt P53671)
GSK3A (human) = GSK3A (human) (UniProt P49840)
ICK (human) = ICK (human) (UniProt Q9UPZ9)
[5] = tested on: BRAF (human), P15056 [V600E]
Sequence of BRAF (human), P15056 [V600E] (P15056 whole entry V600E, looked up): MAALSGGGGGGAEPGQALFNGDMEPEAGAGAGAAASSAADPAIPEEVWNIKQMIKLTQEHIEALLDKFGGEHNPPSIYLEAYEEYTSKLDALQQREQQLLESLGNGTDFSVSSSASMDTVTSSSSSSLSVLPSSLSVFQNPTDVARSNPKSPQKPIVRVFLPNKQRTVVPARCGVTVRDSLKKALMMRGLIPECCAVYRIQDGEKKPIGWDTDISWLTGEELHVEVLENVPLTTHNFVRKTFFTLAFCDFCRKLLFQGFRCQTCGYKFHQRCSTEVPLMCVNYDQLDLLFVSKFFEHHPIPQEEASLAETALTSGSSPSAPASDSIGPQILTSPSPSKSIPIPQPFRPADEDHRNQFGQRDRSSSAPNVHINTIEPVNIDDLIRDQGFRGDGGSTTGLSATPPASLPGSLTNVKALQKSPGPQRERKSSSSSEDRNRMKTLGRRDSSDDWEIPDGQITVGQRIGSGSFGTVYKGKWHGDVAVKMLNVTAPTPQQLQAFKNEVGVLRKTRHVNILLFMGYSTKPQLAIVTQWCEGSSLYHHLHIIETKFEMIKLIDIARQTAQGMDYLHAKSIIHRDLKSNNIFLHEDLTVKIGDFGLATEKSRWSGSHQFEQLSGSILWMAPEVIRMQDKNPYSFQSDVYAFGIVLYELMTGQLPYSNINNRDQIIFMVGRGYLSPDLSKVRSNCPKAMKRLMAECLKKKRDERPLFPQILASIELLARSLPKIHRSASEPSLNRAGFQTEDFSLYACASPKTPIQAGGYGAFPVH

LYN (human) = LYN (human) (UniProt P07948)
CSK (human) = CSK (human) (UniProt P41240)
Sequence of CSK (human) (P41240 whole entry, looked up): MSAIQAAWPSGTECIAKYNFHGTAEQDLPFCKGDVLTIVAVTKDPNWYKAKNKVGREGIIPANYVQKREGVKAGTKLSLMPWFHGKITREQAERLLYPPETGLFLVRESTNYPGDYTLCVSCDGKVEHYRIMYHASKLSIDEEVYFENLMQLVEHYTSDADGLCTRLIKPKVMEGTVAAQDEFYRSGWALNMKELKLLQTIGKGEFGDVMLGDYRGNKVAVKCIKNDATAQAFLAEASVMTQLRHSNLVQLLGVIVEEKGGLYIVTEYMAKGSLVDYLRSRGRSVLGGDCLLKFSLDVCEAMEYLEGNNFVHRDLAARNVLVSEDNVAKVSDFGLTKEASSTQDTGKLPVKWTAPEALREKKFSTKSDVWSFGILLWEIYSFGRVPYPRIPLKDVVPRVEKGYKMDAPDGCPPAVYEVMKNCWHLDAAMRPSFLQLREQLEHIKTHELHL

[6] = biological target: TYK2 JH1 catalytic (human) (UniProt P29597)
[7] = tested on: EGFR (human), P00533 [746-750 del]

Compound: Cc1cc(NC(=O)c2cccc(NC(=O)/C=C/CN(C)C)c2)ccc1Nc1nccc(-c2cccnc2)n1
- kinase still bound, per cent of control (FGFR1 (human)): 94%
- kinase still bound, per cent of control (MAP4K2 (human)): 67%
- kinase still bound, per cent of control (NIM1 (human)): 100%
- kinase still bound, per cent of control (CDK5 (human)): 100%
- kinase still bound, per cent of control (PIP4K2C (human)): 46%
- kinase still bound, per cent of control (MYLK2 (human)): 13%
- kinase still bound, per cent of control (LATS2 (human)): 74%
- kinase still bound, per cent of control (CDKL3 (human)): 100%
- kinase still bound, per cent of control (ERBB2 (human)): 82%
- kinase still bound, per cent of control [1]: 82%
- kinase still bound, per cent of control (RPS6KA5 KD2 (human)): 97%
- kinase still bound, per cent of control (MAPK1 (human)): 99%
- kinase still bound, per cent of control (TAOK2 (human)): 73%
- kinase still bound, per cent of control (HIPK2 (human)): 71%
- kinase still bound, per cent of control (ULK1 (human)): 100%
- kinase still bound, per cent of control [2]: 88%
- kinase still bound, per cent of control (EPHA8 (human)): 100%
- kinase still bound, per cent of control (CDK18 (human)): 100%
- kinase still bound, per cent of control (PTK2 (human)): 11%
- kinase still bound, per cent of control (CDC2L2 (human)): 98%
- kinase still bound, per cent of control (IRAK4 (human)): 93%
- kinase still bound, per cent of control (TXK (human)): 96%
- kinase still bound, per cent of control (FLT4 (human)): 100%
- kinase still bound, per cent of control (ALK (human)): 85%
- kinase still bound, per cent of control (AKT3 (human)): 100%
- kinase still bound, per cent of control (CPK1 (P.falciparum)): 100%
- kinase still bound, per cent of control (KDR (human)): 96%
- kinase still bound, per cent of control (TSSK1B (human)): 100%
- kinase still bound, per cent of control (RPS6KA4 KD1 (human)): 79%
- kinase still bound, per cent of control [3]: 79%
- kinase still bound, per cent of control [4]: 100%
- kinase still bound, per cent of control (MAPK11 (human)): 20%
- kinase still bound, per cent of control (PRPF4B (human)): 100%
- kinase still bound, per cent of control (MAP3K6 (human)): 92%
- kinase still bound, per cent of control (LIMK2 (human)): 98%
- kinase still bound, per cent of control (GSK3A (human)): 92%
- kinase still bound, per cent of control (ICK (human)): 92%
- kinase still bound, per cent of control [5]: 100%
- kinase still bound, per cent of control (LYN (human)): 87%
- kinase still bound, per cent of control (CSK (human)): 100%
- kinase still bound, per cent of control [6]: 96%
- kinase still bound, per cent of control [7]: 90%
